Paper doi:10.1101/2025.08.13.670122v1 (bioRxiv, 2025)

Assays:
AT1R [1] = biological target: T1, AT1R (Homo sapiens, UniProt P30556); test: PKC BRET sensor in HEK293 cells expressing AT1R; assay type: cell-based; set-up: expressed in transfected cells; host or cells: HEK293 cells, transient PEI transfection; conditions: for Emax PKC (% AngII): PKC BRET sensor, response at 10 μM, normalised to AngII; for EC50: PKC-c1b BRET sensor, read 10 min after ligand, mean ± SEM of at least three to five independent experiments, SEM
T1 sequence (P30556 1-359): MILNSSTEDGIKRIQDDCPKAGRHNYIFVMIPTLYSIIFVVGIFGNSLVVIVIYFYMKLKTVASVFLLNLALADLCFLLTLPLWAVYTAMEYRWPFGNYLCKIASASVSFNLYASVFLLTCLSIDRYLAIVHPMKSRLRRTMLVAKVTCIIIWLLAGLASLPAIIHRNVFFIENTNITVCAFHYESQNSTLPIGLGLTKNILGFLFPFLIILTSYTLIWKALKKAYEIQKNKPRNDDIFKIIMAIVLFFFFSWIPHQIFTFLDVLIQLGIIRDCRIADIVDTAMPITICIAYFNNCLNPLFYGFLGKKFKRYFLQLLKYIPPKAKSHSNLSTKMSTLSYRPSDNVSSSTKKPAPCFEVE
Text: (§1) We utilized a clonal cell line HEK293, referred to hereafter as HEK293 cells, which has been previously described.[7],[8] As a gracious gift from A. Inoue (Tohoku University, Sendai, Miyagi, Japan), CRISPR Gαq/11 and Gα12/13 knockout cell lines (ΔGq/11 and ΔG12/13, respectively), were derived as previously explained.[48] In brief, a CRISPR-Cas9 system was used to target either GNAQ and GNA11 or GNA12 and GNA13 genes in HEK293T cells simultaneously to generate the Gαq/11 and Gα12/13 knockout cell lines. For the production of adenovirus, we utilized HEK293A cells. All cells were grown in DMEM supplemented with 10% FBS and Penicillin-Streptomycin-L-Glutamine (10000 IU penicillin, 10000 µg/mL Streptomycin, 200 mM L-Glutamine) at 37°C in T175 flasks under a 5% CO2 humidified chamber. Periodic testing was carried out for mycoplasma contamination (ABM™, Mycoplasma PCR Detection kit). For all biosensors used, cells underwent transfection with the PEI reagent, employing a PEI:DNA ratio of 3:1. For the Gαq biosensor, HEK293 cells were transfected with the plasmids coding for Gαq-RLucII (120 ng), Gβ1 (3000 ng), Gγ1-GFP10 (3000 ng), human AT1 (3000 ng) and Salmon sperm DNA (SSD) (880 ng). For the β-arrestin2 recruitment assay, HEK293 cells were transfected with the plasmids coding for 120 ng β-arrestin-2-RLucII, 3000 ng AT1, 3000 ng rGFP-CAAX, and 3880 ng SSD. For the measurement of PKC, HEK293 cells were transfected with 3000 ng AT1, 600 ng PKC-c1b, and 6400 ng SSD. […] 100 µL of the cell/DNA mixture was added to white 96-well plates and incubated at 37°C at 5% CO2 for 48 h. For the Rho assay, ΔG12/13 cells were seeded at a density of 9,000 cells per well in poly-ornithine-coated white 96-well plates and transfected the following day. In brief, 1 μg of total DNA in 100 μL of PBS was mixed with 100 μL of PBS containing 3 μL of 1 mg/mL PEI. For Rho signaling, 150 ng of AT1R DNA with 25 ng of PKN-RBD-RlucII [8], and 100 ng of rGFP-CAAX were used. Empty pcDNA was used to reach 1 µg of the total DNA amount in 100 μL of PBS. The DNA was then mixed with 100 μL of PBS containing 3 μL of 1 mg/mL PEI. After a 20-min incubation, the DNA/PEI complexes were dispensed into cells in 96-well plates (15 µL/well), and the experiment was carried out 48 h post-transfection.
(§2) On the day of the experiment, each well was washed with 80 µL of Tyrode’s buffer (140 mM NaCl, 2.7 mM KCl, 1 mM CaCl2, 12 mM NaHCO3, 5.6 mM D-glucose, 0.5 mM MgCl2, 0.37 mM NaH2PO4, 25 mM Hepes (pH 7.4)). This was followed by incubation for 1 h in Tyrode’s buffer at room temperature. […] Cells were then stimulated with increasing doses of the indicated ligand, and BRET signals were measured using a Tristar2 (Berthold) microplate reader 10 min later. […] BRET signals were then measured using a Synergy2 (BioTek) microplate reader. […]

AT1R [2] = biological target: T1, AT1R; test: Rho BRET sensor (PKN-RBD-RlucII/rGFP-CAAX) in ΔG12/13 HEK293 cells expressing AT1R; assay type: cell-based; set-up: expressed in transfected cells; host or cells: HEK293 cells, transient PEI transfection; conditions: for Emax Rho Gαq/11 (% AngII): ΔG12/13 HEK293/AT1R, Rho BRET sensor, response at 10 μM, normalised to AngII; for EC50: ΔG12/13 HEK293 cells expressing AT1R, Rho (PKN-RBD-RlucII/rGFP-CAAX) BRET sensor, 3 min stimulation, mean ± SEM of at least three to five independent experiments, SEM, read-out: EC50 Rho Gαq/11
Text: as §1, §2

Emax PKC (% AngII) (AT1R [1]) | EC50 (AT1R [1]) | Emax Rho Gαq/11 (% AngII) (AT1R [2]) | EC50 (AT1R [2]) | SMILES
105 % AngII | 0.66 ± 0.13 nM | 105 % AngII | 2.3 ± 0.5 nM | CC[C@H](C)[C@H](NC(=O)[C@H](Cc1ccc(O)cc1)NC(=O)[C@@H](NC(=O)[C@H](CCCNC(=N)N)NC(=O)[C@@H](N)CC(=O)O)C(C)C)C(=O)N[C@@H](Cc1c[nH]cn1)C(=O)N1CCC[C@H]1C(=O)N[C@@H](Cc1ccc(OC)cc1)C(=O)O [compound 11]
51 % AngII | 4.8 ± 3.4 nM | 47 % AngII | 21 ± 5 nM | CC[C@H](C)[C@H](NC(=O)[C@H](Cc1ccc(O)cc1)NC(=O)[C@@H](NC(=O)[C@H](CCCNC(=N)N)NC(=O)[C@@H](N)CC(=O)O)C(C)C)C(=O)N[C@@H](Cc1c[nH]cn1)C(=O)N1CCC[C@H]1C(=O)N[C@@H](Cc1ccc(OCc2ccccc2)cc1)C(=O)O [compound 12]
